Experimental data: patent US7691901B2, “Carotenoid analogs or derivatives for the inhibition and amelioration of inflammation” (Cardax Pharmaceuticals Inc., priority 2004, dated 2010)

System: lipid peroxidation products
Assay: Thioglycollate/Zymosan-induced peritonitis model: lipid oxidation products in peritoneal lavage by electrospray ionization tandem mass spectrometry
Assay type: in vivo, mice
Experimental: Thioglycollate/Zymosan—Induced Peritonitis Model: Wild-type mice were administered either 500 mg/kg body weight of disodium disuccinate astaxanthin (ddAst/Cardax™) in an oil emulsion vehicle, or normal saline (NS) as a negative control, by oral gavage at 24 hours intervals beginning 7 days prior to the induction of peritonitis. Peritonitis was induced experimentally as follows: mice were injected intraperitoneally with 1 ml of 4% by weight thioglycollate (Tg) broth, to induce the recruitment of proinflammatory cells to the peritoneum. Either 16 hours or 72 hours after recruitment, approximately half of the mice were injected intraperitoneally with 250 mg/kg body weight of zymosan (Z) for a further 4 hours. The mice not receiving zymosan underwent no further treatment. Peritoneal lavage was performed in control animals or animals treated with (ddAst) 16 hours post Tg injection, or 20 h following the combination of both Tg injection (16 hours) followed by Z injection (4 hours), as indicated (Tg/Z). Peritoneal lavages were performed with phosphate-buffered saline containing antioxidant (0.1 mM butylated hydroxytoluene (BHT)) and 2 mM of the metal chelator diethylenetriamine pentaacetic acid (DTPA) according to established practices in the art. The lavage suspensions were transferred to screw-capped tubes under an argon atmosphere, and immediately centrifuged at 1000 rpm in a table top microcentrifuge for 10 min at 4° C. to remove whole cells and debris. All analyses of lipid peroxidation products was performed on cell-free lavage supernatants. Cell pellets were resuspended in phosphate-buffered saline containing 0.1 mM BHT and 0.1 mM DTPA, and differential cell counts (macrophages, monocytes, eosinophils, lymphocytes, neutrophils, and erythrocytes) were performed on cytospun preparations of isolated cells according to established procedures in the art.
Electrospray ionization tandem mass spectrometry was used to simultaneously quantify individual molecular species of HETEs, HPETEs, the prostaglandin PGF2α, F2-isoprostanoids, hydroxy- and hydroperoxy-octadecadienoic acids (H(P)ODEs), and their precursors, arachidonic acid (AA) and linoleic acid (LA). Additionally, the molar ratios of o-tyrosine (oY/F). were measured.

[1] = 16 Hour Thioglycollate/4 Hour Zymosan, 500 mg/kg oral gavage, P-VALUE 0.165
[2] = 16 Hour Thioglycollate/4 Hour Zymosan, 500 mg/kg oral gavage, P-VALUE 0.250
[3] = 16 Hour Thioglycollate/4 Hour Zymosan, 500 mg/kg oral gavage, P-VALUE 0.272 NP
[4] = 16 Hour Thioglycollate/4 Hour Zymosan, 500 mg/kg oral gavage, P-VALUE 0.299
[5] = 16 Hour Thioglycollate/4 Hour Zymosan, 500 mg/kg oral gavage, P-VALUE 0.354
[6] = 16 Hour Thioglycollate/4 Hour Zymosan, 500 mg/kg oral gavage, P-VALUE 0.557
[7] = 16 Hour Thioglycollate/4 Hour Zymosan, 500 mg/kg oral gavage, P-VALUE 0.685 NP
[8] = 16 Hour Thioglycollate/4 Hour Zymosan, 500 mg/kg oral gavage, P-VALUE 0.772 NP
[9] = 16 Hour Thioglycollate/4 Hour Zymosan, 500 mg/kg oral gavage, P-VALUE 0.862 NP
[10] = 16 Hour Thioglycollate/4 Hour Zymosan, 500 mg/kg oral gavage, P-VALUE 0.900
[11] = 16 Hour Thioglycollate/4 Hour Zymosan, 500 mg/kg oral gavage, P-VALUE 0.954 NP
[12] = 16 Hour Thioglycollate/4 Hour Zymosan, 500 mg/kg oral gavage, P-VALUE 1.000 NP
[13] = 16 Hour Thioglycollate/4 Hour Zymosan, mean
[14] = 16 Hour Thioglycollate/4 Hour Zymosan, median
[15] = 16 Hour Thioglycollate, 500 mg/kg oral gavage, P-VALUE 0.018
[16] = 16 Hour Thioglycollate, 500 mg/kg oral gavage, P-VALUE 0.040
[17] = 16 Hour Thioglycollate, 500 mg/kg oral gavage, P-VALUE 0.096
[18] = 16 Hour Thioglycollate, 500 mg/kg oral gavage, P-VALUE 0.120
[19] = 16 Hour Thioglycollate, 500 mg/kg oral gavage, P-VALUE 0.172
[20] = 16 Hour Thioglycollate, 500 mg/kg oral gavage, P-VALUE 0.227 NP

`CC1=C(/C=C/C(C)=C/C=C/C(C)=C/C=C/C=C(C)/C=C/C=C(C)/C=C/C2=C(C)C(=O)C(OC(=O)CCC(=O)O)CC2(C)C)C(C)(C)CC(OC(=O)CCC(=O)O)C1=O` (stereo not drawn) [Cardax, disodium disuccinate astaxanthin] was tested, and the “13-HODE MEAN” value [1] was 5.689 pmol, the “13-HODE MEDIAN” value [1] was 4.768 pmol and the “Prostaglandin F2α (PGF2α) MEAN” value [2] was 0.038 pmol. For the same molecule, the “Prostaglandin F2α (PGF2α) MEDIAN” value [2] was 0.035 pmol, the “9-HETE/AA (ratio) MEAN” value [3] was 0.529 and the “9-HETE/AA (ratio) MEDIAN” value [3] was 0.472. For the same molecule, the “9-HODE MEAN” value [4] was 2.767 pmol, the “9-HODE MEDIAN” value [4] was 2.825 pmol and the “9-HETE MEAN” value [5] was 0.559 pmol. For the same molecule, the “9-HETE MEDIAN” value [5] was 0.612 pmol, the “Linoleic Acid MEAN” value [6] was 13158 pmol and the “Linoleic Acid MEDIAN” value [6] was 10509 pmol. The “Arachidonic Acid MEAN” value [7] was 1208.5 pmol, the “Arachidonic Acid MEDIAN” value [7] was 1039.6 pmol and the “PGF2a/AA (ratio) MEAN” value [7] was 0.038. For the same molecule, the “PGF2a/AA (ratio) MEDIAN” value [7] was 0.025, the “13-HODE/AA (ratio) MEAN” value [8] was 0.456 and the “13-HODE/AA (ratio) MEDIAN” value [8] was 0.376. The “9-HODE/LA (ratio) MEAN” value [9] was 0.245, the “9-HODE/LA (ratio) MEDIAN” value [9] was 0.201 and the “11-HETE MEAN” value [9] was 0.654 pmol. For the same molecule, the “11-HETE MEDIAN” value [9] was 0.450 pmol, the “5-HETE MEAN” value [10] was 1.082 pmol and the “5-HETE MEDIAN” value [10] was 0.953 pmol. The “11-HETE/AA (ratio) MEAN” value [11] was 0.669, the “11-HETE/AA (ratio) MEDIAN” value [11] was 0.453 and the “5-HETE/AA (ratio) MEAN” value [12] was 0.997. The “5-HETE/AA (ratio) MEDIAN” value [12] was 0.770, the “5-oxo-ETE (pmol), MEAN” value [13] was 0.085 pmol and the “5-oxo-ETE (ratio), MEAN” value [13] was 0.080 ratio. The “8-iso-F2a (pmol), MEAN” value [13] was 0.012 pmol, the “8-iso-F2a/AA (ratio), MEAN” value [13] was 0.011 ratio and the “5-oxo-ETE (pmol), MEDIAN” value [14] was 0.083 pmol. For the same molecule, the “5-oxo-ETE (ratio), MEDIAN” value [14] was 0.081 ratio, the “8-iso-F2a (pmol), MEDIAN” value [14] was 0.000 pmol and the “8-iso-F2a/AA (ratio), MEDIAN” value [14] was 0.000 ratio. For the same molecule, the “Arachidonic Acid MEAN” value [15] was 1791.6 pmol, the “Arachidonic Acid MEDIAN” value [15] was 1854.3 pmol and the “Linoleic Acid MEAN” value [16] was 22739 pmol. The “Linoleic Acid MEDIAN” value [16] was 22907 pmol, the “13-HODE/AA (ratio) MEAN” value [17] was 0.905 and the “13-HODE/AA (ratio) MEDIAN” value [17] was 0.920. For the same molecule, the “9-HODE MEAN” value [18] was 5.367 pmol, the “9-HODE MEDIAN” value [18] was 3.831 pmol and the “Prostaglandin F2α (PGF2α) MEAN” value [19] was 0.037 pmol. The “Prostaglandin F2α (PGF2α) MEDIAN” value [19] was 0.033 pmol, the “9-HETE/AA (ratio) MEAN” value [20] was 0.476 and the “9-HETE/AA (ratio) MEDIAN” value [20] was 0.448.
